Source: patent US11471462B2, “Compositions and methods for detecting and treating diabetes” (THE BROAD INSTITUTE, INC., priority 2016, dated 2022)

System: SLC16A11
Experiment: Compound treatment, SLC16A11 expression by ddPCR in SNU761 cells
Format: cell-based, human
Conditions: not given
Method: A small number of the compounds that made the strongest positive connections to the SLC16A11 gene expression signature were selected and tested. […] Methotrexate was also included, which had been annotated as a dihydrofolate reductase inhibitor. SNU761 cells (derived from a human hepatocellular carcinoma) and NCIH716 cells (derived from a human cecum adenocarcinoma), which both express SLC16A11, were treated with the compounds. The same compound concentrations and treatment times were used as in the LINCS dataset experiments. […] For normalization, a different housekeeper gene, HPRT1, was used and obtained similar results with the mTOR inhibitors (FIGS. 14A and 14B).
From the total list of compounds, 59 readily available compounds were selected from the 79 compounds with the largest connectivity scores to the query signature and 20 middle compounds with connectivity scores centered on 0 (FIG. 15A) and then treated SNU761 cells at the same doses and treatment times as were used in the LINCS dataset. It was expected that the top compounds would be enriched for compounds that increased SLC16A11 expression. […] The results were aligned with the expectations (FIG. 15B). Hierarchical clustering of the SLC16 expression profiles generated by the compound treatments are shown by the heat map in FIG. 15C.
SNU761 (human hepatocellular carcinoma) and NCIH716 (human cecum adenocarcinoma) were cultured in RPMI Medium 1640 supplemented with 10% Fetal Bovine Serum (FBS), 100 μg/ml Streptomycin and 100 U/ml Penicillin. Cells were grown in a humidified CO2 incubator, at 37° C.
For the unbiased approach taken to investigate the compounds that connected to the SLC16A11 gene expression signature, compounds were obtained from compound management at the Broad Institute.
SNU761 and NCIH716 cells were plated into 96 well plates at a density of 20,000 cells per well. Hepatocytes were plated into collagen coated 96 well plates (Corning, 354408) at a density of 50,000 cells per well. After 24 hours, cells were treated with compounds at a final concentration of 10 μM or vehicle control for the appropriate amount of time.
At the time of collection, cells in 96 well plates were lysed by directly adding 50 μL of RLT buffer (Qiagen). 75 μL of AMPure XP beads, diluted by a factor of 5 in polyethylene glycol, were then added to bind nucleic acids. One wash with polyethylene glycol was then performed. DNase treatment (Qiagen) was carried out according to the manufacturer's protocol in a final volume of 50 μL. 100 μL of polyethylene glycol was added after the DNase treatment to crowd nucleic acids back onto the beads. Two washes with 80% ethanol were performed and residual ethanol was removed. RNA was then eluted in water.
RNA was DNase treated and converted into cDNA using the High-Capacity RNA-to-cDNA kit (Thermo Fisher Scientific). The following FAM-labeled TaqMan Real-Time PCR assays (Thermo Fisher Scientific) were used to quantify gene expression: SLC16A11 (Hs00601062_g1), SLC16A13 (Hs00416832_m1), SLC16A1 (Hs01560299_m1). The VIC-labeled TaqMan Real-Time assays TBP (Hs00427620_m1) or HPRT1 (Hs02800695_m1) were used for normalization. Droplets were generated and analyzed using a QX200 Droplet Generator and Reader system (BioRad). Data was extracted using QuantaSoft (BioRad) and analyzed using Microsoft Excel.

Compound	avg_fc (SLC16A11 expression, compound treated vs DMSO treated cells)
N#CC(=C(/N)Sc1ccccc1N)/C(C#N)=C(\N)Sc1ccccc1N [U0126]	1.885

Same assay, conditions: SNU761 cells; same doses and treatment times as in the LINCS dataset

Compound	avg_fc (SLC16A11 expression, compound treated vs DMSO treated cells)
O=C1NC(=O)/C(=C\c2ccc3nccnc3c2)S1 [AS-605240]	0.7908
Cc1cn(-c2cc(C(=O)Nc3ccc(C)c(NC(=O)c4ccno4)c3)cc(C(F)(F)F)c2)cn1 [ALW-II-38-3]	0.9734
CCC(=O)N1CCN(c2ccc(-n3c(=O)ccc4cnc5ccc(-c6cnc7ccccc7c6)cc5c43)cc2C(F)(F)F)CC1 [torin-1]	2.84
Cc1cccc(CCN2CCC(C(=O)c3ccc(NS(C)(=O)=O)cc3)CC2)n1 [E-4031]	0.9411
Clc1cncc(N2CCNCC2)n1 [MK-212]	0.8022
Cn1cnc2c(F)c(Nc3ccc(Br)cc3Cl)c(C(=O)NOCCO)cc21 [selumetinib]	1.964
CO[C@H]1C[C@@H]2CC[C@@H](C)[C@@](O)(O2)C(=O)C(=O)N2CCCC[C@H]2C(=O)O[C@H]([C@H](C)C[C@@H]2CC[C@@H](OP(C)(C)=O)[C@H](OC)C2)CC(=O)[C@H](C)/C=C(\C)[C@@H](O)[C@@H](OC)C(=O)[C@H](C)C[C@H](C)/C=C/C=C/C=C/1C [deforolimus, reference compound]	1.903
CC(C)OC(=O)c1cc2c(OCC(O)CNC(C)(C)C)cccc2[nH]1 (centres unmarked) [carpindolol]	0.8548
O=C(NOCC1CC1)c1ccc(F)c(F)c1Nc1ccc(I)cc1Cl [PD-184352]	1.445
O=C1N(c2ccccc2)c2ccccc2C1(Cc1ccncc1)Cc1ccncc1 [linopirdine]	0.8629
Cn1cc(C(=O)C(=O)NC2CN3CCC2CC3)c2ccccc21 (centres unmarked) [RS-56812]	0.9914
Nc1nc(Cl)nc2c1ncn2[C@H]1C[C@H](O)[C@@H](CO)O1 [cladribine]	0.5994
Nc1[nH]nc2nnc(-c3c(-c4ccccc4)nn4ccccc34)cc12 [FR-180204]	0.915
COC(=O)Nc1ccc(-c2nc(N3CCOCC3)c3cnn(C4CCN(C(=O)OC)CC4)c3n2)cc1 [WYE-354, methyl 4-[6-[4-(methoxycarbonylamino)phenyl]-4-morpholin-4-ylpyrazolo[3,4-d]pyrimidin-1-yl]piperidine-1-carboxylate, reference compound]	3.517
c1nc2nc(Nc3ccc(N4CCOCC4)cc3)nc(NC3CCCCC3)c2[nH]1 [reversine]	3.235
Cc1cnc(NC(=O)C2=C(O)c3ccccc3S(=O)(=O)N2C)s1 [meloxicam]	0.9414
Cc1cc([C@@H](C)Nc2ccccc2C(=O)O)c2nc(N3CCOCC3)cc(=O)n2c1 [AZD-6482]	2.176
CC[C@@H]1C(=O)OC[C@@H]1Cc1cncn1C [pilocarpine]	0.7379
O=C1NC(=O)/C(=C/c2ccc3c(c2)OC(F)(F)O3)S1 [AS-604850]	1.009
NS(=O)(=O)c1cc2c(cc1C(F)(F)F)NC(Cc1ccccc1)NS2(=O)=O (centres unmarked) [bendroflumethiazide]	0.7917
O=C1NC(=O)/C(=C/c2ccc3nccc(-c4ccncc4)c3c2)S1 [GSK-1059615]	1.25
COc1cc2nccc(Oc3ccc(NC(=O)Nc4cc(C)on4)c(Cl)c3)c2cc1OC [tivozanib]	1.647
c1ccc2c(CCNc3ccc(Nc4ccncc4)cc3)c[nH]c2c1 [JNJ-26854165]	0.5328

Compound	avg_fc (SLC16A11 expression, compound treated vs DMSO treated cells)
Clc1ccc(COC(Cn2ccnc2)c2ccc(Cl)cc2Cl)cc1 (centres unmarked) [econazole]	1.178
Nc1ccc(-c2ccc3ncc4ccc(=O)n(-c5cccc(C(F)(F)F)c5)c4c3c2)cn1 [torin-2]	2.843
CC1(C)C[C@@H]1C(=O)N/C(=C\CCCCSC[C@H](N)C(=O)O)C(=O)O [cilastatin]	0.9371
O=C(NOC[C@H](O)CO)c1ccc(F)c(F)c1Nc1ccc(I)cc1F [PD-0325901]	2.181
NC(=O)c1ccc(N(C(N)=O)c2c(F)cccc2F)nc1-c1ccc(F)cc1F [VX-702]	0.8683
Nc1nc(N)c2nc(-c3cccc(O)c3)c(-c3cccc(O)c3)nc2n1 [TG100-115]	1.086
Cc1[nH]c(/C=C2\C(=O)Nc3ccc(S(=O)(=O)N(C)c4cccc(Cl)c4)cc32)c(C)c1C(=O)N1CCN(C)CC1 [SU-11274]	1.059
Cc1onc(-c2ccccc2)c1-c1ccc(S(N)(=O)=O)cc1 [valdecoxib]	1.069
COCC(=O)NC/C=C/c1ccc2ncnc(Nc3ccc(Oc4ccc(C)nc4)c(C)c3)c2c1 [CP-724714]	1.37
CS(=O)(=O)N1CCN(Cc2cc3nc(-c4cccc5[nH]ncc45)nc(N4CCOCC4)c3s2)CC1 [GDC-0941]	2.079
COc1ccc2ccc(=O)oc2c1 [herniarin]	0.9563
c1ccc2c(CCNc3ccc(Nc4ccncc4)cc3)c[nH]c2c1 [serdemetan]	0.6384
COCCCOc1cc(C[C@@H](C[C@H](N)[C@@H](O)C[C@H](C(=O)NCC(C)(C)C(N)=O)C(C)C)C(C)C)ccc1OC [aliskiren]	0.8853
CCCS(=O)(=O)Nc1ccc(F)c(C(=O)c2c[nH]c3ncc(-c4ccc(Cl)cc4)cc23)c1F [vemurafenib]	1.368
O=C1OC2(c3ccccc31)c1cc(I)c(O)c(I)c1Oc1c2cc(I)c(O)c1I [erythrosine]	0.649
Cn1c(=O)n(-c2ccc(C(C)(C)C#N)cc2)c2c3cc(-c4cnc5ccccc5c4)ccc3ncc21 [NVP-BEZ235, 2-methyl-2-[4-(3-methyl-2-oxo-8-quinolin-3-ylimidazo[4,5-c]quinolin-1-yl)phenyl]propanenitrile, reference compound]	2.779
CO[C@H]1C[C@@H]2CC[C@@H](C)[C@@](O)(O2)C(=O)C(=O)N2CCCC[C@H]2C(=O)O[C@H]([C@H](C)C[C@@H]2CC[C@@H](O)[C@H](OC)C2)CC(=O)[C@H](C)/C=C(\C)[C@@H](O)[C@@H](OC)C(=O)[C@H](C)C[C@H](C)/C=C/C=C/C=C/1C [rapamycin, reference compound]	1.662
CCCC[C@@H](C=O)NC(=O)[C@H](CC(C)C)NC(=O)OCc1ccccc1 [calpeptin]	1.034
O=c1cc(N2CCOCC2)oc2c1ccc1ccccc12 [NU-7026]	1.12
COc1cccc(-c2cc(=O)c3ccccc3o2)c1N [PD-98059]	0.7929
C[C@@H]1C[C@@H]([C@H](O)CC2CC(=O)NC(=O)C2)C(=O)[C@@H](C)C1 [cycloheximide]	1.243
COc1cccc2cc(-c3nc([C@H]4CC[C@H](C(=O)O)CC4)n4ncnc(N)c34)[nH]c12 [OSI-027, trans-4-[4-amino-5-(7 methoxy-1H-indol-2-yl)imidazo[5,1-f][1,2,4]triazin-7-yl]-cyclohexanecarboxylic acid, reference compound]	3.384
CNC(=O)Nc1ccc(-c2nc(N3CC4CCC(C3)O4)c3cnn(C4CCC5(CC4)OCCO5)c3n2)cc1 [WYE-125132]	3.336
